Assay results from article PMC6917776, “Discovery of a chemical probe for PRDM9” (Nature Communications, 2019).
Read-outs that look alike come from different tables or passages of the source.

Tests used:
Assay in all cases: Methyltransferase selectivity assay (SPA)
Type in all cases: biochemical
[1] = molecular target: T1, EZH2 (PRC2) trimeric complex (Homo sapiens, UniProt Q15910)
T1 construct: purchased Structural Genomics Consortium (SGC Toronto) in-house methyltransferase panel

[2] = molecular target: T2, SMYD2 (Homo sapiens, UniProt Q9NRG4)
T2 construct: purchased Structural Genomics Consortium (SGC Toronto) in-house methyltransferase panel

[3] = molecular target: T3, SETD8 (Homo sapiens, UniProt Q9NQR1)
T3 construct: purchased Structural Genomics Consortium (SGC Toronto) in-house methyltransferase panel
T3 sequence (Q9NQR1 1-393): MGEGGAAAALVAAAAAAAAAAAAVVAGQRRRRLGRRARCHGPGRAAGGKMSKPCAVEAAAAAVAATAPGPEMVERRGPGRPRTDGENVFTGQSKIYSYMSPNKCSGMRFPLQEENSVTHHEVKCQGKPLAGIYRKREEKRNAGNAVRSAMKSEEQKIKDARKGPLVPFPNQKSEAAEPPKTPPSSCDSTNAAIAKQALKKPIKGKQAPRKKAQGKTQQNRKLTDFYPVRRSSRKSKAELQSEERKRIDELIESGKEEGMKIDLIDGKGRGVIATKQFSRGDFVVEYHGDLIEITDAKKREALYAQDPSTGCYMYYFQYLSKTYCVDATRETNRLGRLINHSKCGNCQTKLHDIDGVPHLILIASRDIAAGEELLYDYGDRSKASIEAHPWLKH

[4] = molecular target: T4, PRMT7 (Homo sapiens, UniProt Q9NVM4)
T4 construct: purchased Structural Genomics Consortium (SGC Toronto) in-house methyltransferase panel
T4 sequence (Q9NVM4 1-692): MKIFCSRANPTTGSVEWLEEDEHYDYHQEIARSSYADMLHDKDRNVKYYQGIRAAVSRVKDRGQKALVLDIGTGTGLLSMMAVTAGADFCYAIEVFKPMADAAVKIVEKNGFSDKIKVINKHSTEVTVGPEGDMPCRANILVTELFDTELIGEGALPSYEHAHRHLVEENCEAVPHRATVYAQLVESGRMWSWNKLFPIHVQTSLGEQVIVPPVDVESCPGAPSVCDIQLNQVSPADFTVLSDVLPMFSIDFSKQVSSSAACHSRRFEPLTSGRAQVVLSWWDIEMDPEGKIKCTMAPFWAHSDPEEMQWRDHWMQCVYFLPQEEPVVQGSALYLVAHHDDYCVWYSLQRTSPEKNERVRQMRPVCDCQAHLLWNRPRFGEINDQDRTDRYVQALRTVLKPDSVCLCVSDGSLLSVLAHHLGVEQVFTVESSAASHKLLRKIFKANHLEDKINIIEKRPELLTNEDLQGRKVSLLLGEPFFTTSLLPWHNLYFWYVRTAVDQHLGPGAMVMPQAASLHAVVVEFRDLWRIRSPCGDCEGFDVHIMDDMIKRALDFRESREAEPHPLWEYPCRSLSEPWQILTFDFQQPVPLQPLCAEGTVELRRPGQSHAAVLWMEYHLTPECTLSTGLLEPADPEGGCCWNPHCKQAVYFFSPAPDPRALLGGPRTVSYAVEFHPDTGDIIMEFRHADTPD

[5] = molecular target: T5, SUV39H1 (Homo sapiens, UniProt O43463)
T5 construct: purchased Structural Genomics Consortium (SGC Toronto) in-house methyltransferase panel
T5 sequence (O43463 1-412): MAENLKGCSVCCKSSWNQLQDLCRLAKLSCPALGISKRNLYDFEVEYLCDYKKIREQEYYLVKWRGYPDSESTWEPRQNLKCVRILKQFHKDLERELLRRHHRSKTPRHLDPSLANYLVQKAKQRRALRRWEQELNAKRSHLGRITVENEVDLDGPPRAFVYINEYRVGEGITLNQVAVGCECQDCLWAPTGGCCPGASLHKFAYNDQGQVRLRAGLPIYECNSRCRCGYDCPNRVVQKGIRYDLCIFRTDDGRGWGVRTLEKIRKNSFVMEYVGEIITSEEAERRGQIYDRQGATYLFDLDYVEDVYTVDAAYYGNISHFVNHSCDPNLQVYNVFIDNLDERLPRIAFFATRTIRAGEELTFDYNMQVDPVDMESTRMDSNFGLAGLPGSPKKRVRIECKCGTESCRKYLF

[6] = molecular target: T6, SUV39H2 (Homo sapiens, UniProt Q9H5I1)
T6 construct: purchased Structural Genomics Consortium (SGC Toronto) in-house methyltransferase panel

[7] = molecular target: T7, SETD2 (Homo sapiens, UniProt Q9BYW2)
T7 construct: purchased Structural Genomics Consortium (SGC Toronto) in-house methyltransferase panel
Outline: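 Radiometric 3H-SAM assays at SAM and substrate concentrations near each enzyme's apparent Km. PRMT8 and SETD2 methylated biotinylated substrate, read by scintillation proximity after guanidine quench. ASH1L and NSD3 methylated nucleosome substrate for 1 h at 23°C, then TCA precipitation on filters and scintillation counting.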

[8] = molecular target: T8, PRMT6 (Homo sapiens, UniProt Q96LA8)
T8 construct: purchased Structural Genomics Consortium (SGC Toronto) in-house methyltransferase panel

[9] = 10µM compound, Exp1, Exp2, 10 µM
[10] = 1µM compound, Exp1, Exp2, read-out: Activity %
[11] = 10µM compound, Exp1, Exp2, read-out: Activity %

T8 sequence (Q96LA8 whole entry): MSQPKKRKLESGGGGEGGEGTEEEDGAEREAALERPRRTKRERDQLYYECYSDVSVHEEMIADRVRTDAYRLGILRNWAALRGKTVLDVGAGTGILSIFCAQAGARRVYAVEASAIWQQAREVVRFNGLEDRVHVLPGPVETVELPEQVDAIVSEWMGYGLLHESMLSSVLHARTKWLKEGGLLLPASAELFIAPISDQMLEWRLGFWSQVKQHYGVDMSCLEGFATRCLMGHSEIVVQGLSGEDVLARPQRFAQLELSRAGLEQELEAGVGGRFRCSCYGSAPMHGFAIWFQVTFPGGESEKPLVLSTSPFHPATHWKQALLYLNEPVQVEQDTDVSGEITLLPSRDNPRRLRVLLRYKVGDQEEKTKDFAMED
T2 sequence (Q9NRG4 whole entry): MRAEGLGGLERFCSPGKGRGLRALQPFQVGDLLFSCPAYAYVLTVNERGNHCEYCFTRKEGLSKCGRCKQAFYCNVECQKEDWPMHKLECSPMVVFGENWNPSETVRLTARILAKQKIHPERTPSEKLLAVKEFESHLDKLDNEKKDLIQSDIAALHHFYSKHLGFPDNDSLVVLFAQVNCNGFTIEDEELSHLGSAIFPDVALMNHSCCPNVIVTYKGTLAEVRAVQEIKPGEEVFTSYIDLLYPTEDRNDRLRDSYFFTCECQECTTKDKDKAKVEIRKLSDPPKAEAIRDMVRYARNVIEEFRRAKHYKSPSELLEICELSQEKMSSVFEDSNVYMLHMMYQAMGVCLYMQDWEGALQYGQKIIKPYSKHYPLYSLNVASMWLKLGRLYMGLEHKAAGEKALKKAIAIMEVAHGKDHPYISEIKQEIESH
T6 sequence (Q9H5I1 whole entry): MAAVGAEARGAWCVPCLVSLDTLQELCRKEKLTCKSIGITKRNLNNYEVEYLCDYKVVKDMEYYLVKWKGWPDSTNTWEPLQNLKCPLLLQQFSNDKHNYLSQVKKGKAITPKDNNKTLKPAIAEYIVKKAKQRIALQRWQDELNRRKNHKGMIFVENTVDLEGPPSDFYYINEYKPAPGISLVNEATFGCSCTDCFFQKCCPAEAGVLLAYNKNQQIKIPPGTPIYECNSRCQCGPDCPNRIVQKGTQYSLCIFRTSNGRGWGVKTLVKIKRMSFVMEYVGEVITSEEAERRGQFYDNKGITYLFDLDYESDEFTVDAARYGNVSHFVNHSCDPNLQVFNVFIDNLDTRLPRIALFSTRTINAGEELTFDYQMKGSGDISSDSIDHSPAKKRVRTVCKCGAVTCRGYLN
T7 sequence (Q9BYW2 whole entry): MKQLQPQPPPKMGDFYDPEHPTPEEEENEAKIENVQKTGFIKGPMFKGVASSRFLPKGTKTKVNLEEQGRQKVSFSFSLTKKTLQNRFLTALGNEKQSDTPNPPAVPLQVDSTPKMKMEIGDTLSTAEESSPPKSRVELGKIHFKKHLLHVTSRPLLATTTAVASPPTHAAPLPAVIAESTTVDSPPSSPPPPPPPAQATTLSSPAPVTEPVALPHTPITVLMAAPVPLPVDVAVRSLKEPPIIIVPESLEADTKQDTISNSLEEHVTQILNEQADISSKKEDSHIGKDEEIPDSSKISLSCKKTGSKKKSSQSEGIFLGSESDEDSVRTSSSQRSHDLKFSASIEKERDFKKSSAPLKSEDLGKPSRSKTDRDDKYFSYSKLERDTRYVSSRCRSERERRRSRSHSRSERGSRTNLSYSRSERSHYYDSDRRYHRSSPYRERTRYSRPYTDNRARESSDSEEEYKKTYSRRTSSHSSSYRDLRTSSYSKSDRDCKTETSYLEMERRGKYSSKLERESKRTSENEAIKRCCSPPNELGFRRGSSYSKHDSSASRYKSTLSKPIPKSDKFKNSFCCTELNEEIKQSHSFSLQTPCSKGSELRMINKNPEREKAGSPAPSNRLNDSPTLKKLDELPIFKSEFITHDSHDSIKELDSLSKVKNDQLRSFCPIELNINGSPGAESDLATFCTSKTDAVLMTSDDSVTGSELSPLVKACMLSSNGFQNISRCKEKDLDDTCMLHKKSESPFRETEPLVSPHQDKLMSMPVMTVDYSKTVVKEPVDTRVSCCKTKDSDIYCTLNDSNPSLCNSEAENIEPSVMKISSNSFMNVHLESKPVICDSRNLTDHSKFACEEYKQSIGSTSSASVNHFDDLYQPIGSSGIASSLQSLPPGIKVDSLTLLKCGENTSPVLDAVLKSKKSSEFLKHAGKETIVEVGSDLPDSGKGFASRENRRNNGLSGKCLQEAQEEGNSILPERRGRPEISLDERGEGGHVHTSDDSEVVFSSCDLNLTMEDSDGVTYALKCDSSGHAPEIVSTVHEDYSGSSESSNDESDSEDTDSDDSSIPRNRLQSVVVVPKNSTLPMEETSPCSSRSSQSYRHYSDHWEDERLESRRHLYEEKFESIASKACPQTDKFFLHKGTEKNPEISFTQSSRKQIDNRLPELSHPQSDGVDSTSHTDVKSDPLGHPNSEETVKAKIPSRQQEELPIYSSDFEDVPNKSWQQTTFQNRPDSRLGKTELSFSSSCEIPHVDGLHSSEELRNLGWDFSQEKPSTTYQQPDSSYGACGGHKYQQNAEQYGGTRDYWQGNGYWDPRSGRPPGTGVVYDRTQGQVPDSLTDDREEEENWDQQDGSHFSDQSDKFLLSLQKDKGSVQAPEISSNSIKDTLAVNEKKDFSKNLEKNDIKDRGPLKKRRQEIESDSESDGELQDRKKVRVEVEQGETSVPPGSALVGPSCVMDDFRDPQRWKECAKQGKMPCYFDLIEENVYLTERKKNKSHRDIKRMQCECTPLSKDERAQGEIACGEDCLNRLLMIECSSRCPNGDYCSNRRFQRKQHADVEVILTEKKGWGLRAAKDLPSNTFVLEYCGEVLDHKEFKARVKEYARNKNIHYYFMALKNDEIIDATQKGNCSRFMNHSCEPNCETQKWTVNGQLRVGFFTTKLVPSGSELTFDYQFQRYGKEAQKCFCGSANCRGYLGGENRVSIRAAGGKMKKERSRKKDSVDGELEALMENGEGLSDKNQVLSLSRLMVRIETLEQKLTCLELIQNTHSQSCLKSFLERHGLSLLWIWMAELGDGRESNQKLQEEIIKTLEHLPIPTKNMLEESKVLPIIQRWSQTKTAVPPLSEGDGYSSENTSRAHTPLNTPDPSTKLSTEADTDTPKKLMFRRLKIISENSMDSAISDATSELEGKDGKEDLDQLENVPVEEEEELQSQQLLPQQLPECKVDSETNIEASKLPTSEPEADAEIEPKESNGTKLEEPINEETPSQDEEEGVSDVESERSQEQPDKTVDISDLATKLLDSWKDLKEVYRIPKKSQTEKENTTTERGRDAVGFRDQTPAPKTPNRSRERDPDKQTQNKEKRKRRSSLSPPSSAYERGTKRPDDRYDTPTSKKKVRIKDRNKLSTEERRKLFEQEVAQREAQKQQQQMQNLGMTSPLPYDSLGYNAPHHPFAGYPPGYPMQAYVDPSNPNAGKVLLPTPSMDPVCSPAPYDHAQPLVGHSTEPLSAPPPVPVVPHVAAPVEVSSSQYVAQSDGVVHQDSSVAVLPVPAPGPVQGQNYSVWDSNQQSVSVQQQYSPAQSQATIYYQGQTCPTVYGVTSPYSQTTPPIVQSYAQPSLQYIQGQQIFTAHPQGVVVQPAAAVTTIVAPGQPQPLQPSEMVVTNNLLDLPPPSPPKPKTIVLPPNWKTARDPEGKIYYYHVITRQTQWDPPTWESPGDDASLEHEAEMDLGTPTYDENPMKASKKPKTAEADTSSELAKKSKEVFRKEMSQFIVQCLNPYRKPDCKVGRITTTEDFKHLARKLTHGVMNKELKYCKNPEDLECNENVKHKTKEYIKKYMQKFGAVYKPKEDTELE

## COc1cc(OC)cc(-c2noc(N3CCN(C)C4(CCN(c5ccccc5)CC4)C3)n2)c1 [MRK-740 -NC]
[1]; 1µM compound, Exp1, Exp2
  activity at 1 µM: 99%
[1]; 1µM compound, Exp1, Exp2, 1 µM
  Activity %: 112%
[1]; 10µM compound, Exp1, Exp2
  activity at 10 µM: 100%
[1]; [9]
  Activity %: 95%
[2]; 1µM compound, Exp1, Exp2
  activity at 1 µM: 102%
[2]; 1µM compound, Exp1, Exp2, 1 µM
  Activity %: 100%
[2]; 10µM compound, Exp1, Exp2
  activity at 10 µM: 101%
[2]; [9]
  Activity %: 99%
[3]; 1µM compound, Exp1, Exp2
  activity at 1 µM: 107%
[3]; 1µM compound, Exp1, Exp2, 1 µM
  Activity %: 95%
[3]; 10µM compound, Exp1, Exp2
  activity at 10 µM: 94%
[3]; [9]
  Activity %: 92%
[4]; 1µM compound, Exp1, Exp2
  activity at 1 µM: 99%
[4]; 1µM compound, Exp1, Exp2, 1 µM
  Activity %: 92%
[4]; 10µM compound, Exp1, Exp2
  activity at 10 µM: 91%
[4]; [9]
  Activity %: 97%
[5]; 1µM compound, Exp1, Exp2
  activity at 1 µM: 100%
[5]; 1µM compound, Exp1, Exp2, 1 µM
  Activity %: 104%
[5]; 10µM compound, Exp1, Exp2
  activity at 10 µM: 101%
[6]; 1µM compound, Exp1, Exp2
  activity at 1 µM: 93%
[6]; 10µM compound, Exp1, Exp2
  activity at 10 µM: 86%
[6]; [9]
  Activity %: 96%
[7]; 1µM compound, Exp1, Exp2
  activity at 1 µM: 97%
[7]; 1µM compound, Exp1, Exp2, 1 µM
  Activity %: 107%
[7]; 10µM compound, Exp1, Exp2
  activity at 10 µM: 99%
[7]; [9]
  Activity %: 98%
[8]; 1µM compound, Exp1, Exp2
  activity at 1 µM: 98%
[8]; 1µM compound, Exp1, Exp2, 1 µM
  Activity %: 97%
[8]; 10µM compound, Exp1, Exp2
  activity at 10 µM: 96%
[8]; [9]
  Activity %: 95%

## COc1cc(OC)cc(-c2noc(N3CCN(C)C4(CCN(c5ccnc(C)c5)CC4)C3)n2)c1 [MRK-740]
[1]; 1µM compound, Exp1, Exp2, 1 µM
  Activity %: 104%
[1]; [10]
  activity at 1 µM: 102%
[1]; [9]
  Activity %: 103%
[1]; [11]
  activity at 10 µM: 102%
[2]; 1µM compound, Exp1, Exp2, 1 µM
  Activity %: 89%
[2]; [10]
  activity at 1 µM: 86%
[2]; [9]
  Activity %: 92%
[2]; [11]
  activity at 10 µM: 91%
[3]; [10]
  activity at 1 µM: 99%
[3]; [11]
  activity at 10 µM: 101%
[4]; 1µM compound, Exp1, Exp2, 1 µM
  Activity %: 90%
[4]; [10]
  activity at 1 µM: 92%
[4]; [9]
  Activity %: 87%
[4]; [11]
  activity at 10 µM: 89%
[5]; 1µM compound, Exp1, Exp2, 1 µM
  Activity %: 85%
[5]; [10]
  activity at 1 µM: 84%
[5]; [9]
  Activity %: 80%
[5]; [11]
  activity at 10 µM: 84%
[6]; 1µM compound, Exp1, Exp2, 1 µM
  Activity %: 89%
[6]; [10]
  activity at 1 µM: 92%
[6]; [9]
  Activity %: 90%
[6]; [11]
  activity at 10 µM: 92%
[7]; 1µM compound, Exp1, Exp2, 1 µM
  Activity %: 96%
[7]; [10]
  activity at 1 µM: 97%
[7]; [9]
  Activity %: 86%
[7]; [11]
  activity at 10 µM: 90%
[8]; 1µM compound, Exp1, Exp2, 1 µM
  Activity %: 94%
[8]; [10]
  activity at 1 µM: 98%
[8]; [9]
  Activity %: 93%
[8]; [11]
  activity at 10 µM: 98%
